Reference: patent EP0923530B1, “INHIBITION OF MATRIX METALLOPROTEASES BY SUBSTITUTED BIARYL OXOBUTYRIC ACIDS” (Bayer Corporation, priority 1996, dated 1997)

Assays:
MMP-2 = MMP-2 (Homo sapiens, UniProt P08253); experiment: biochemical
MMP-3 = biological target: T1, MMP-3 (Homo sapiens, UniProt P08254); experiment: P218 quenched fluorescence assay (MMP Microfluorometric Profiling Assay), MMP-3; type: biochemical; settings: 6 µM P218 substrate, 25 min at 37°C, pH 6.5; read-out: MMP-3 Fluorogenic IC50
T1 construct: made in house; host or cells: CHO cells
T1 sequence (P08254 100-477): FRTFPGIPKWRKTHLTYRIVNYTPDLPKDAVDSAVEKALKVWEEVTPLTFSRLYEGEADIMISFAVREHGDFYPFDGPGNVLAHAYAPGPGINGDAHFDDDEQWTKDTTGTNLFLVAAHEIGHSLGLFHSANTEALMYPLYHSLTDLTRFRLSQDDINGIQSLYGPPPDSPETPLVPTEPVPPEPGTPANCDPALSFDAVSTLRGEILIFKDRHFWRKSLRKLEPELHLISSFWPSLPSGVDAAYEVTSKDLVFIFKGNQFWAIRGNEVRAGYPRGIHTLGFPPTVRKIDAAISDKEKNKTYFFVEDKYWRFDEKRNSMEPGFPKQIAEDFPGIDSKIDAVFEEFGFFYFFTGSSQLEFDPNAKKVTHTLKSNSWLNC
Excerpt: (§1) The P218 quenched fluorescence assay (Microfluorometric Profiling Assay) is a modification of that originally described by Knight, et al.. FEBS Lett. 296, 263 (1992) for a related substance and a variety of matrix metalloproteinases (MMPs) in cuvettes. The assay was run with each invention compound and the three MMPs, MMP-3, MMP-9 and MMP-2, analyzed in parallel, adapted as follows for a 96-well microtiter plate and a Hamilton AT® workstation. P218 Fluorogenic Substrate: P218 is a synthetic substrate containing a 4-acetyl-7-methoxycoumarin ( MCA) group in the N-terminal position and a 3-[2, 4-dinitrophenyl]-L-2,3-diaminopropionyl (DPA) group internally. This is a modification of a peptide reported by Knight (1992) that was used as a substrate for matrix metalloproteinases. Once the P218 peptide is cleaved (putative clip site at the Ala-Leu bond), the fluorescence of the MCA group can be detected on a fluorometer with excitation at 328 nm and emission at 393 nm. P218 is currently being produced BACHEM exclusively for Bayer. P218 has the structure: [formula]
Recombinant Human CHO Pro-MMP-3: Human CHO pro-stromelysin-257 (pro-MMP-3) was expressed and purified as described by Housley, et al.. J. Biol. Chem. 268, 4481 (1993).
Activation of Pro-MMP-3: Pro-MMP-3 at 1.72 µM (100 µg/mL) in 5 mM Tris at pH 7.5, 5 mM CaCl2, 25 mM NaCl, and 0.005% Brij-35 (MMP-3 activation buffer) was activated by incubation with TPCK (N-tosyl-(L)-phenylalanine chloromethyl ketone) trypsin (1:100 w/w to pro-MMP-3) at 25 °C for 30 min. The reaction was stopped by addition of soybean trypsin inhibitor (SBTI; 5:1 w/w to trypsin concentration). This activation protocol results in the formation of 45 kDa active MMP-3, which still contains the C-terminal portion of the enzyme.
(§2) Hamiltion Microlab AT Plus: The MMP-Profiling Assay is performed robotically on a Hamilton MicroLab AT Plus®. […]
(§3) Millipore Cytofluor II. Following incubation, the plate was read on a Cytofluor II fluorometric plate reader with excitation at 340 nm and emission at 395 nm with the gain set at 80. […]

MMP-9 = biological target: T2, MMP-9 (Homo sapiens, UniProt P14780); experiment: P218 quenched fluorescence assay (MMP Microfluorometric Profiling Assay), MMP-9; type: biochemical; settings: 6 µM P218 substrate, 25 min at 37°C, pH 6.5; read-out: MMP-9 Fluorogenic IC50
T2 construct: made in house
T2 sequence (P14780 107-707 limits assumed): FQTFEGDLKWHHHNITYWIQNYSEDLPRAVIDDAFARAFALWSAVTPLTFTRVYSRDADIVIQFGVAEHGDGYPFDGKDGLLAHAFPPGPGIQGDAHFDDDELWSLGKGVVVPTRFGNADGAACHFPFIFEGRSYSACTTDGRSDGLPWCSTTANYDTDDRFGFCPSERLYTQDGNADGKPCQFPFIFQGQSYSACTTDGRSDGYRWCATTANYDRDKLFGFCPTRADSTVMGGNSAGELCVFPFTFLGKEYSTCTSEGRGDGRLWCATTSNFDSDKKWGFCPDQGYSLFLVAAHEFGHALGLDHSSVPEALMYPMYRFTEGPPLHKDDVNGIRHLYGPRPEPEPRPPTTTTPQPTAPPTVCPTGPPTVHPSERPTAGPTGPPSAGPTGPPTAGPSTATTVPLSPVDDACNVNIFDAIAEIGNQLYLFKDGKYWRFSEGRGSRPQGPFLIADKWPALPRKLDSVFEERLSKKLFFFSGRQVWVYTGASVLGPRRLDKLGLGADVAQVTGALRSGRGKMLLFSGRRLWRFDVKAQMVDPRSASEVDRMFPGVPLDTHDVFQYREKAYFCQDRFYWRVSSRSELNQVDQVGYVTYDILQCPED
Excerpt: as §1
Recombinant Human Pro-MMP-9: Human pro-gelatinase B (pro-MMP-9) derived from U937 cDNA as described by Wilhelm, et al. J. Biol. Chem. 264, 17213 (1989) was expressed as the full-length form using a baculovirus protein expression system. The pro-enzyme was purified using methods previously described by Hibbs, et al. J. Biol. Chem. 260, 2493 (1984).
Activation of Pro-MMP-9: […] 20 µg/mL in 50 mM Tris at pH 7.4, 10mM CaCl2, 150 mM NaCl, and 0.005% Brij-35 (MMP-9 activation buffer) was activated by incubation with 0.5 mM p-aminophenylmercuric acetate (APMA) for 3.5 h at 37°C. The enzyme was dialyzed against the same buffer to revmove the APMA.
as §2, §3

MMP-2, sequence (P08253 110-660): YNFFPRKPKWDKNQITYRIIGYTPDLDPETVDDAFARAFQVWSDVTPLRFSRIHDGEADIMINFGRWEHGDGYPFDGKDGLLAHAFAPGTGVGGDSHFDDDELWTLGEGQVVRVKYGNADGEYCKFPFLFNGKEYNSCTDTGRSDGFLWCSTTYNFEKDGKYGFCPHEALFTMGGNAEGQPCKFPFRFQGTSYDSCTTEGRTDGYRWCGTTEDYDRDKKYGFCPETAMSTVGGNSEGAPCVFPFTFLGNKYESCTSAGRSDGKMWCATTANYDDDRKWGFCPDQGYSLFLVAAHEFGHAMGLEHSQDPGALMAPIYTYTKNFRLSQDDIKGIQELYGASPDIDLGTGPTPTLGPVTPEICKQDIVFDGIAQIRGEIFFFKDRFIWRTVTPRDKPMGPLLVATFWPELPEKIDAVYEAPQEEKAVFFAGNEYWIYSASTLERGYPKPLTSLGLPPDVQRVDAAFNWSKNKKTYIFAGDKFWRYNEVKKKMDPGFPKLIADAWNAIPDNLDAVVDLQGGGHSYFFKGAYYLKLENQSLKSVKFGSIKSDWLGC

Row | Compound | IC50 (MMP-2) [nM] | IC50 (MMP-3) [nM] | IC50 (MMP-9) [nM]
1 | O=C(c1ccc(-c2ccc(Cl)cc2)cc1)C1CCC(Cn2nnc3ccccc3c2=O)C1C(=O)O (stereo not drawn) [Example 1, 2-[(4'-chloro[1,1'-biphenyl]-4-yl)carbonyl]-5-[(4-oxo-1,2,3-benzotriazin-3(4H)-yl)methyl]-cyclopentanecarboxylic acid] | 0.39 | 1.7 | 0.34
2 | O=C(CC(CCn1nnc2ccccc2c1=O)C(=O)O)c1ccc(-c2ccc(Cl)cc2)cc1 (stereo not drawn) [Example 19, α-[2-(4'-chloro[1,1'-biphenyl]-4-yl)-2-oxoethyl]-4-oxo-1,2,3,-Benzotriazine-3(4H)-butanoic acid] | 2.4 | 47 | 4.7
3 | CC1=NCC(=O)N(CCC(CC(=O)c2ccc(-c3ccc(Cl)cc3)cc2)C(=O)O)c2ccccc21 (stereo not drawn) [Example 22, α-[2-(4'-chloro[1,1'-biphenyl]-4-yl)-2-oxoethyl]-2,3-dihydro-5-methyl-2-oxo-1H-1,4-benzodiazepine-1-butanoic acid] | 24 | 140 | 120
